For the series the following is noted: 101.33 kPa, Liquid; for viscosity: Capillary tube (Ostwald / Ubbelohde) method; for mass density: Pycnometric method; for speed of sound: Sing-around technique in a fixed-path interferometer.

SMILES strings stand for the structures. Numbers after ± are expanded uncertainties.

In general, viscosity refers to the resistance of a fluid to flow. For orientation: mass density means the mass of a sample divided by its volume. The term speed of sound denotes how fast a sound wave travels through the sample. As for `CCC(C)=O` [butanone], where the note is “303.15 K”, the viscosity was 0.352 ± 0.009 mPa·s, the mass density worked out at 802.5 ± 3.7 kg/m3 and the speed of sound worked out at 1168.6 ± 6.9 m/s. Under “308.15 K”, the viscosity was 0.334 ± 0.009 mPa·s, the mass density was 800.1 ± 3.6 kg/m3 and the speed of sound was determined as 1157.2 ± 6.9 m/s. Further, where the note is “313.15 K”, the viscosity is given as 0.315 ± 0.008 mPa·s, the mass density worked out at 800.3 ± 3.7 kg/m3 and the speed of sound is listed as 1130.4 ± 6.8 m/s.

For `CN(C)C=O` [dimethylformamide], the viscosity (303.15 K) is recorded as 0.715 ± 0.018 mPa·s, the viscosity (308.15 K) came out at 0.693 ± 0.018 mPa·s and the viscosity (313.15 K) amounted to 0.677 ± 0.018 mPa·s. Also, the mass density runs as follows: (303.15 K) 927.2 ± 4.9 kg/m3; (308.15 K) 919.7 ± 4.8 kg/m3; (313.15 K) 916.4 ± 4.8 kg/m3. The speed of sound was 1404.6 ± 7.5 m/s (303.15 K), 1400.8 ± 7.5 m/s (308.15 K) and 1420.8 ± 7.6 m/s (313.15 K).

For the compound `CCO` [ethanol], where the note is “303.15 K”, the mass density is 772.4 ± 3.4 kg/m3 and the speed of sound stood at 1135.4 ± 6.8 m/s. Further, under “308.15 K”, the viscosity is 0.658 ± 0.017 mPa·s, the mass density is on record as 771.6 ± 3.4 kg/m3 and the speed of sound stood at 1133.2 ± 6.8 m/s. Under “313.15 K”, the viscosity was 0.617 ± 0.016 mPa·s, the mass density turned out to be 771.2 ± 3.4 kg/m3 and the speed of sound was found to be 1130.8 ± 6.8 m/s.
